Reference: PubChem BioAssay (NCI)
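These data come from cells grown in 96-well plates and exposed to compound for 48 hours at five concentrations. Here, GI50 denotes the concentration required for 50% inhibition of growth. At the TGI there is no net growth.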 Where a SMILES comes first, the peptide text is derived from it. [ ]: non-standard residue; d: D form. pGlu = O=C1CC[CH](C(=O)O)N1

Assays:
Test in all cases: growth of human tumour cells (NCI), 48 h
MDA-MB-231 breast = tested on: MDA-MB-231 breast
HCT-116 colon = tested on: HCT-116 colon
SF-268 CNS = tested on: SF-268 CNS
M14 melanoma = tested on: M14 melanoma
NCI-H460 lung = tested on: NCI-H460 lung
NCI-H226 lung = tested on: NCI-H226 lung
PC-3 prostate = tested on: PC-3 prostate
OVCAR-8 ovarian = tested on: OVCAR-8 ovarian
MCF7 breast = tested on: MCF7 breast
UO-31 renal = tested on: UO-31 renal

Structure (SMILES)	TGI (MDA-MB-231 breast)	TGI (HCT-116 colon)	TGI (SF-268 CNS)	TGI (M14 melanoma)	TGI (NCI-H460 lung)	TGI (NCI-H226 lung)	TGI (PC-3 prostate)	TGI (OVCAR-8 ovarian)	TGI (MCF7 breast)	TGI (UO-31 renal)	GI50 (MDA-MB-231 breast)	GI50 (HCT-116 colon)	GI50 (SF-268 CNS)	GI50 (M14 melanoma)	GI50 (NCI-H460 lung)	GI50 (NCI-H226 lung)	GI50 (PC-3 prostate)	GI50 (OVCAR-8 ovarian)	GI50 (MCF7 breast)	GI50 (UO-31 renal)
O=C(Nc1ccc([As](=O)(O)O)cc1)Nc1cccc(Cl)c1Cl	> 100 µM	> 100 µM	> 100 µM	> 100 µM	> 100 µM	> 100 µM	> 100 µM	> 100 µM	> 100 µM	> 100 µM										
Clc1nc(Cl)c2ncn(CC3(Cn4cnc5c(Cl)nc(Cl)nc54)COC3)c2n1	0.371 µM	0.35 µM	0.372 µM	0.753 µM	0.447 µM	3.68 µM	0.348 µM	0.532 µM	0.428 µM	1.35 µM	0.19 µM	0.182 µM	0.196 µM	0.274 µM	0.222 µM	1.77 µM	0.188 µM	0.256 µM	0.188 µM	0.623 µM
N=C1C(c2nc3ccccc3s2)=C(O)CN1c1ccc(F)c(Cl)c1	47.3 µM	> 100 µM	> 100 µM	> 100 µM	> 100 µM	55.4 µM	30.8 µM	33.4 µM	> 100 µM	35.8 µM	15.9 µM	24.2 µM	22 µM	> 100 µM	17.5 µM	6.11 µM	4.04 µM	12.6 µM	40.3 µM	14.7 µM
O=c1[nH]c(=O)c2cn[nH]c2[nH]1	> 100 µM	> 100 µM	> 100 µM	> 100 µM	> 100 µM	> 100 µM	> 100 µM	> 100 µM	> 100 µM	> 100 µM	> 100 µM	> 100 µM	> 100 µM	> 100 µM	> 100 µM	> 100 µM	> 100 µM	> 100 µM	> 100 µM	> 100 µM
CC(=O)NC1C(OC[C@@H](CC(=O)N[C@@H](CC(=O)O)CC(=O)N[C@H](CC(=O)N[C@@H](CCCN)CC(=O)N[C@@H](CCCN)CC(=O)N[C@H](CC(N)=O)C(C)C)C(C)C)NC(=O)C[C@@H](N)C(C)C)OC(CO)C(O)C1O (some centres undefined)	> 100 µM	> 100 µM	> 100 µM	> 100 µM	> 100 µM	> 100 µM	> 100 µM	> 100 µM	> 100 µM	> 100 µM	> 100 µM	> 100 µM	> 100 µM	> 100 µM	> 100 µM	> 100 µM	> 100 µM	> 100 µM	> 100 µM	> 100 µM
N#Cc1ccc(OCc2nc(N)nc(N)c2-c2ccc(Cl)c(Cl)c2)cc1	> 100 µM	> 100 µM	> 100 µM	> 100 µM	14.1 µM	> 100 µM	> 100 µM	54.5 µM	34.5 µM	> 100 µM	4.4 µM	0.552 µM	2.76 µM	0.741 µM	0.377 µM	4.86 µM	0.613 µM	0.621 µM	2.51 µM	3.79 µM
C=C(CN1C(=O)CN(C)C1=O)c1ccc(C(=O)Nc2ccccc2N)cc1	> 100 µM	36.3 µM	> 100 µM	> 100 µM	> 100 µM	> 100 µM	> 100 µM	> 100 µM	> 100 µM	> 100 µM	36.3 µM	6.7 µM	11.5 µM	29.8 µM	15.9 µM	23.6 µM	12 µM	6.78 µM	12.7 µM	11.8 µM
CCNC(=O)C1CCCN1C(=O)C(CCCN=C(N)N)NC(=O)C(CC(C)C)NC(=O)C(CC(C)C)NC(=O)C(Cc1ccc(O)cc1)NC(=O)C(CO)NC(=O)C(Cc1c[nH]c2ccccc12)NC(=O)C(Cc1cnc[nH]1)NC(=O)C1CCC(=O)N1 (centres undefined) ([pGlu]HWSYLLRP-NHEt; configuration not given here)	> 100 µM	> 100 µM	> 100 µM	> 100 µM	> 100 µM	> 100 µM	> 100 µM	> 100 µM	> 100 µM	> 100 µM	> 100 µM	> 100 µM	> 100 µM	> 100 µM	> 100 µM	> 100 µM	> 100 µM	> 100 µM	> 100 µM	> 100 µM
COc1ccc(-c2cc3c(c4cc(OC)ccc24)C(=O)OC3=O)cc1	> 100 µM	> 100 µM	> 100 µM	> 100 µM	> 100 µM	> 100 µM	> 100 µM	> 100 µM	> 100 µM	> 100 µM										
CN1CCC2(CC1)ONC1=NCCN12	> 100 µM	> 100 µM	> 100 µM	> 100 µM	> 100 µM	63.5 µM	66.5 µM	12.9 µM	87.1 µM	> 100 µM	46 µM	32.4 µM	37.2 µM	47.9 µM	37.2 µM	21.8 µM	26 µM		23 µM	45.3 µM
CCN(Cc1ccc(Cl)cc1)c1ccc(CO)c(Cl)c1	20.3 µM	3.77 µM	29.6 µM	20.2 µM	10.9 µM	0.198 µM	27.7 µM	21 µM	6.43 µM	13.5 µM	4.95 µM	0.129 µM	13.5 µM	4.43 µM	0.348 µM	0.063 µM	11.5 µM	3.62 µM	0.292 µM	2.18 µM
O=C(CCCCCCNC(=O)c1cnc(N(c2ccccc2)c2ccccc2)nc1)NO	14.7 µM	> 33.9 µM	33.2 µM	> 100 µM	> 100 µM	> 91.4 µM	> 100 µM	> 100 µM	> 67.1 µM	36.6 µM	2.99 µM	2.07 µM	3.77 µM	3.57 µM	2.75 µM	16.6 µM	4.87 µM	2.25 µM	2.99 µM	4.63 µM
CCN1C(=O)N(CC)C2C1NN=c1s/c(=C\c3cccc(F)c3)c(=O)n12 (centres undefined)	> 100 µM	> 100 µM	> 100 µM	> 100 µM	15.1 µM	> 100 µM	> 100 µM	> 100 µM	> 100 µM	> 100 µM	0.405 µM	0.131 µM	2.61 µM	0.0727 µM	0.217 µM	0.24 µM	0.185 µM	0.345 µM	0.0392 µM	0.96 µM
C/C=C(\C)C(=O)NC1=CC[C@@]2(C)C(=CCC3C2CC[C@@]2(C)C3CC[C@@H]2C(C)N(C)C)C1=O (some centres undefined)	9.99 µM	3.1 µM	6.93 µM	3.44 µM	4.98 µM	36.3 µM	17.7 µM	> 77.9 µM	14.2 µM	3.02 µM	3.14 µM	1.41 µM	2.14 µM	1.81 µM	2.06 µM	4.65 µM	2.5 µM	10.1 µM	2.79 µM	1.44 µM
COc1ccc(/C=C/C(=O)c2cc(OC)c(OC)c(OC)c2)cc1OCc1cn(Cc2ccc(F)cc2)nn1	> 100 µM	10.7 µM	> 100 µM	> 100 µM	15.4 µM	7.67 µM	> 100 µM	31.5 µM	> 100 µM	79.8 µM	2.84 µM	2.38 µM	2.98 µM	4.07 µM	3.3 µM	2.26 µM	2.66 µM	2.58 µM	2.43 µM	4 µM
COc1cc(/C=C\c2cc(OC)c(OC)c(OC)c2)cc(NC(=O)/C=C/c2cc(OC)c(OC)c(OC)c2)c1OC	> 100 µM	> 100 µM	> 100 µM	> 100 µM	> 100 µM	> 100 µM	> 100 µM	> 100 µM	> 100 µM	> 100 µM	5.43 µM	4.57 µM	> 100 µM	3.78 µM	5.39 µM	50 µM	3.02 µM	6.68 µM	3.49 µM	1.09 µM
CCCCON(OC(=O)c1ccc2ccccc2c1)C(=O)c1ccccc1	> 100 µM	> 100 µM	> 100 µM	> 100 µM	> 100 µM	> 100 µM	> 100 µM	> 100 µM	> 100 µM	> 100 µM	> 100 µM	34.8 µM	> 100 µM	> 100 µM	> 100 µM	74 µM	> 100 µM	> 100 µM	60.1 µM	53.1 µM
CCOC(=O)Nc1ccc2c(c1)/C(=N\NC(N)=S)c1ccccc1-2	> 54.6 µM	50 µM	39.9 µM	23.1 µM	23.1 µM	17.6 µM	24.8 µM	13.8 µM	23.8 µM	14.2 µM	3.48 µM	4.32 µM	6.14 µM	4.69 µM	4.33 µM	4.43 µM	4.44 µM	3.77 µM	3.15 µM	3.97 µM
O=c1[nH]nnc2c1ncn2C1OC(CO)C(O)C1O (centres undefined)	76.9 µM	> 100 µM	> 100 µM	> 100 µM	> 100 µM	> 100 µM	> 100 µM	> 100 µM	> 100 µM	> 100 µM	4.91 µM	7.59 µM	19.1 µM	3.57 µM	2.82 µM	10.3 µM	2.93 µM	4.73 µM	17.3 µM	3.18 µM
CN(/N=C/c1cccc2cccnc12)c1ccc([N+](=O)[O-])cc1[N+](=O)[O-]	56.8 µM	> 82.1 µM	58.6 µM	> 94.4 µM	> 100 µM	64.4 µM	> 100 µM	> 100 µM	> 100 µM	90.1 µM										
CCN(Cc1cc(Nc2nc(C)cn3c(-c4cn[nH]c4)cnc23)sn1)C(C)(C)CO	4.35 µM	2.3 µM	1.87 µM	2.84 µM	4.59 µM	0.513 µM	9.66 µM	11 µM	2.01 µM	10.1 µM	0.0508 µM	0.0127 µM	0.0376 µM	0.0421 µM	0.044 µM	< 0.0106 µM	0.0219 µM	0.0411 µM	0.026 µM	0.0428 µM
N#CC1(C#N)C2(c3ccccc3)OC(c3ccccc3)(c3cc4ccccc4cc32)C1(C#N)C#N	31.9 µM	20 µM	39.5 µM	31.6 µM	41.7 µM	37.2 µM	32.9 µM	26.8 µM	27.8 µM	26.5 µM										
CNC(=O)Nc1nc2ccc([N+](=O)[O-])cc2[nH]1	> 100 µM	> 100 µM	> 100 µM	> 100 µM	> 100 µM	> 100 µM	> 100 µM	> 100 µM	> 100 µM	> 100 µM										
O=C1C(Cl)=C(Nc2cccc(Cl)c2)C(=O)N1Cc1ccc(Cl)cc1	1.22 µM	6.53 µM	19.3 µM	9.94 µM	15.7 µM	1.37 µM	11.9 µM	18.5 µM	13.6 µM	24.5 µM	0.216 µM	0.442 µM	1.41 µM	2.11 µM	0.538 µM	0.119 µM	1.32 µM	0.833 µM	0.499 µM	1.74 µM
COC(=O)C1CC23CCCN4CCC5(c6ccccc6N(C=O)C15CC2)C43 (centres undefined)	> 100 µM	> 100 µM	> 100 µM	> 100 µM	> 100 µM	> 100 µM	> 100 µM	> 100 µM	> 100 µM	> 100 µM										
